How the values were obtained:
giant foxtail (SETFA) = experiment: Test 2 field trial, preemergence; format: in vivo, Setaria faberi; parameters: scale not given here
Description: Corn seeds (hybrid ‘Pioneer 31G96’) were planted in mid spring season, 3.8 cm deep in a clay loam soil having 2% organic matter and a pH of 6.6. Plots were 6.1 m long by 3.0 m wide with rows spaced 76 cm apart. Seeds were spaced 15 cm apart within the rows. The field was managed using conventional tillage practices. […] A few of the weed species could not be evaluated at every timing. […] Results are the means of the three replicates.

[1] = tested on: common lambsquarters (CHEAL); experiment: Test 3 field trial, emerged weeds before corn planting; format: in vivo, Chenopodium album; details: 68 DAA; Cpd 2 100, glyphosate 1540, paraquat 1150 g a.i./ha, alone or combined
Description: (§1) Corn seeds (hybrid ‘Pioneer 33J56’) were planted in early spring season, 3.8 cm deep in a silt loam soil having 2.4% organic matter and a pH of 6. Plots were 6.1 m long by 2.7 m wide with rows spaced 91.4 cm apart. The field was managed using no-till practices. […] Compound 2 and paraquat treatments, alone and in combination, also included a surfactant. Glyphosate, alone and with Compound 2, included ammonium sulfate in the treatment mixture. […] The effects on the weeds in the treated plots and untreated control plots were recorded 30, 42, 46 and 68 days after application. Most of the weed species could not be evaluated at every timing. Corn response was not evaluated because the growth was highly variable depending on the efficacy of the weed control treatments. […] Results are the means of the three replicates.

curly dock (RUMCR) = experiment: as above; format: in vivo, Rumex crispus; details: Cpd 2 100, glyphosate 1540, paraquat 1150 g a.i./ha, alone or combined
Description: as §1

bushy wallflower (ERYRE) = experiment: Test 9 field trial, emerged weeds before corn planting; format: in vivo, Erysimum repandum; details: g a.i./ha: Cpd 2 100, Glyphosate 1540, Paraquat 1150
Method: (§2) Corn seeds (hybrid ‘Pioneer 34M91 RR’) were planted in mid spring season, about 3.8 cm deep in a silty clay loam soil having a pH of 6.7. Plots were 9.1 m long by 3.0 m. The field was managed using no-till practices. […] Compound 2 and paraquat treatments, alone and in combination, also included a surfactant. Glyphosate, alone and with Compound 2, included ammonium sulfate in the treatment mixture. […] The effects on the weeds in the treated plots and untreated control plots were recorded 7, 14, 23, 30 and 57 days after application. Most of the weed species could not be evaluated at every timing. Corn response was only evaluated 57 days after application. […] Results are the means of the three replicates.

prickly lettuce (LACSE) = experiment: as above; format: in vivo, Lactuca serriola; details: g a.i./ha: Cpd 2 100, Glyphosate 1540, Paraquat 1150
Method: as §2

slender amaranth (AMAVI) = experiment: Test 12 field trial, preemergence; format: in vivo, Amaranthus viridis; parameters: scale not given here; details: Cpd 2 or Cpd 1 62 g a.i./ha, Diuron 2000 g a.i./ha
Description: (§3) In early-mid spring season, corn seeds (hybrid ‘Pioneer 3041’) were planted 5 cm deep and sugarcane nodes (variety RB-72.454) were planted 10 cm deep in separate plots in a clay soil having 2.6% organic matter and a pH of 5.6. Plots were 24 m long by 1.5 m wide with rows spaced 80 cm (corn) or 140 cm (sugarcane) apart. Corn seeds were spaced 15 cm apart and sugarcane nodes were spaced 10 cm apart within the rows. At the same time, weed seeds were broadcast over the surface of separate plots without a crop, one weed species per plot. The weed plots were rotary tilled to incorporate the weed seeds to a variety of depths. The field was managed using conventional tillage practices.

[2] = tested on: tropical spiderwort (COMBE); experiment: Test 12 field trial, preemergence; format: in vivo, Commelina benghalensis; parameters: scale not given here; details: Cpd 2 or Cpd 1 62 g a.i./ha, Diuron 2000 g a.i./ha
Description: as §3

common purslane (POROL) = experiment: Test 12 field trial, preemergence; format: in vivo, Portulaca oleracea; details: Cpd 2 or Cpd 1 62 g a.i./ha, Diuron 2000 g a.i./ha
Description: as §3

winter barley (HORVW) = experiment: Test 20 growth chamber, postemergence; format: in vivo, Hordeum vulgare; details: 25 DAA
Method: A test was conducted to evaluate the effects on winter barley (HORVW, Hordeum vulgare L.) and winter wheat (TRZAW, Triticum aestivum L.) of mixtures of Compound 2 with the commercial herbicides (2,4-dichlorophenoxy)acetic acid (2,4-D) and (4-chloro-2-methylphenoxy)acetic acid (MCPA), auxin mimics. […] Plants were treated postemergence at the 2-leaf growth stage, and each treatment was replicated a total of four times (three times in the loam/sand blend and one time in RediEarth). […] Plants were watered as needed. […] Results are the means of the four replicates.

kochia (KCHSC) = experiment: Test 21 growth chamber, postemergence; format: in vivo, Kochia scoparia; details: 19 DAA
Method: A test was conducted to evaluate the effects on winter barley (HORVW, Hordeum vulgare L.), winter wheat (TRZAW, Triticum aestivum L.), and several weed species, of mixtures of Compound 2 with the commercial herbicide (2,4-dichlorophenoxy)acetic acid (2,4-D), an auxin mimic. […] Plants were treated postemergence at the 2-4 leaf growth stage, and each treatment was replicated one time. […] Plants were watered as needed. […] Results are from single replicates.

[3] = 18 DAA, g a.i./ha: Cpd 2 25, Atrazine 250
[4] = 18 DAA, g a.i./ha: Cpd 2 50, Atrazine 500
[5] = 18 DAA, g a.i./ha: Cpd 2 75, Atrazine 750
[6] = 18 DAA, g a.i./ha: Cpd 2 100, Atrazine 1000
[7] = 18 DAA, g a.i./ha: Cpd 2 150, Atrazine 1500
[8] = 28 DAA, g a.i./ha: Cpd 2 25, Atrazine 250
[9] = 28 DAA, g a.i./ha: Cpd 2 50, Atrazine 500
[10] = 28 DAA, g a.i./ha: Cpd 2 75, Atrazine 750
[11] = 28 DAA, g a.i./ha: Cpd 2 100, Atrazine 1000
[12] = 28 DAA, g a.i./ha: Cpd 2 150, Atrazine 1500

CCNc1nc(Cl)nc(NC(C)C)n1 [Atrazine, atrazine, reference compound]
SETFA Obs (giant foxtail (SETFA); [3]): 20 | SETFA Obs (giant foxtail (SETFA); [4]): 25 | SETFA Obs (giant foxtail (SETFA); [5]): 40 | SETFA Obs (giant foxtail (SETFA); [6]): 43 | SETFA Obs (giant foxtail (SETFA); [7]): 38 | SETFA Obs (giant foxtail (SETFA); [8]): 37 | SETFA Obs (giant foxtail (SETFA); [9]): 67 | SETFA Obs (giant foxtail (SETFA); [10]): 83 | SETFA Obs (giant foxtail (SETFA); [11]): 87 | SETFA Obs (giant foxtail (SETFA); [12]): 88 | SETFA Obs (giant foxtail (SETFA); 55 DAA, g a.i./ha: Cpd 2 25, Atrazine 250): 35 | SETFA Obs (giant foxtail (SETFA); 55 DAA, g a.i./ha: Cpd 2 50, Atrazine 500): 60 | SETFA Obs (giant foxtail (SETFA); 55 DAA, g a.i./ha: Cpd 2 75, Atrazine 750): 58 | SETFA Obs (giant foxtail (SETFA); 55 DAA, g a.i./ha: Cpd 2 100, Atrazine 1000): 65 | SETFA Obs (giant foxtail (SETFA); 55 DAA, g a.i./ha: Cpd 2 150, Atrazine 1500): 80

O=C(O)CNCP(=O)(O)O [Glyphosate]
CHEAL Obs [1]: 0% | RUMCR Obs (curly dock (RUMCR); 30 DAA): 75% | RUMCR Obs (curly dock (RUMCR); 42 DAA): 61% | RUMCR Obs (curly dock (RUMCR); 46 DAA): 82% | RUMCR Obs (curly dock (RUMCR); 68 DAA): 93% | ERYRE Obs (bushy wallflower (ERYRE); 7 DAA): 63% | ERYRE Obs (bushy wallflower (ERYRE); 14 DAA): 74% | ERYRE Obs (bushy wallflower (ERYRE); 23 DAA): 89% | ERYRE Obs (bushy wallflower (ERYRE); 30 DAA): 100% | ERYRE Obs (bushy wallflower (ERYRE); 57 DAA): 100% | LACSE Obs (prickly lettuce (LACSE); 7 DAA): 45% | LACSE Obs (prickly lettuce (LACSE); 14 DAA): 87% | LACSE Obs (prickly lettuce (LACSE); 23 DAA): 99% | LACSE Obs (prickly lettuce (LACSE); 30 DAA): 100% | LACSE Obs (prickly lettuce (LACSE); 57 DAA): 100%

Nc1nc(C2CC2)nc(C(=O)O)c1Cl [Compound 1, 6-amino-5-chloro-2-cyclopropyl-4-pyrimidinecarboxylic acid]
AMAVI Obs (slender amaranth (AMAVI); 15 DAA): 90 | AMAVI Obs (slender amaranth (AMAVI); 29 DAA): 60 | AMAVI Obs (slender amaranth (AMAVI); 48 DAA): 40 | AMAVI Obs (slender amaranth (AMAVI); 61 DAA): 40 | COMBE Obs ([2]; 15 DAA): 60 | COMBE Obs ([2]; 29 DAA): 40 | COMBE Obs ([2]; 48 DAA): 40 | COMBE Obs ([2]; 61 DAA): 0 | POROL Obs (common purslane (POROL); 15 DAA): 90 | POROL Obs (common purslane (POROL); 29 DAA): 97 | POROL Obs (common purslane (POROL); 48 DAA): 100 | POROL Obs (common purslane (POROL); 61 DAA): 100

COC(=O)c1nc(C2CC2)nc(N)c1Cl [Compound 2, methyl 6-amino-5-chloro-2-cyclopropyl-4-pyrimidinecarboxylate]
SETFA Obs (giant foxtail (SETFA); [3]): 13 | SETFA Obs (giant foxtail (SETFA); [4]): 22 | SETFA Obs (giant foxtail (SETFA); [5]): 32 | SETFA Obs (giant foxtail (SETFA); [6]): 35 | SETFA Obs (giant foxtail (SETFA); [7]): 43 | SETFA Obs (giant foxtail (SETFA); [8]): 5 | SETFA Obs (giant foxtail (SETFA); [9]): 10 | SETFA Obs (giant foxtail (SETFA); [10]): 30 | SETFA Obs (giant foxtail (SETFA); [11]): 23 | SETFA Obs (giant foxtail (SETFA); [12]): 65 | CHEAL Obs [1]: 100% | RUMCR Obs (curly dock (RUMCR); 30 DAA): 62% | RUMCR Obs (curly dock (RUMCR); 42 DAA): 37% | RUMCR Obs (curly dock (RUMCR); 46 DAA): 54% | RUMCR Obs (curly dock (RUMCR); 68 DAA): 67% | ERYRE Obs (bushy wallflower (ERYRE); 7 DAA): 20% | ERYRE Obs (bushy wallflower (ERYRE); 14 DAA): 3% | ERYRE Obs (bushy wallflower (ERYRE); 23 DAA): 3% | ERYRE Obs (bushy wallflower (ERYRE); 30 DAA): 0% | ERYRE Obs (bushy wallflower (ERYRE); 57 DAA): 0% | LACSE Obs (prickly lettuce (LACSE); 7 DAA): 58% | LACSE Obs (prickly lettuce (LACSE); 14 DAA): 63% | LACSE Obs (prickly lettuce (LACSE); 23 DAA): 70% | LACSE Obs (prickly lettuce (LACSE); 30 DAA): 88% | LACSE Obs (prickly lettuce (LACSE); 57 DAA): 98% | AMAVI Obs (slender amaranth (AMAVI); 15 DAA): 90 | AMAVI Obs (slender amaranth (AMAVI); 29 DAA): 60 | AMAVI Obs (slender amaranth (AMAVI); 48 DAA): 40 | AMAVI Obs (slender amaranth (AMAVI); 61 DAA): 0 | COMBE Obs ([2]; 15 DAA): 50 | COMBE Obs ([2]; 29 DAA): 40 | COMBE Obs ([2]; 48 DAA): 40 | COMBE Obs ([2]; 61 DAA): 40 | POROL Obs (common purslane (POROL); 15 DAA): 60 | POROL Obs (common purslane (POROL); 29 DAA): 75 | POROL Obs (common purslane (POROL); 48 DAA): 90 | POROL Obs (common purslane (POROL); 61 DAA): 90 | Postemergence HORVW Obs (winter barley (HORVW); Cpd 2 alone 4 g a.i./ha): 26 | Postemergence HORVW Obs (winter barley (HORVW); Cpd 2 alone 8 g a.i./ha): 33 | Postemergence HORVW Obs (winter barley (HORVW); Cpd 2 alone 16 g a.i./ha): 44 | Postemergence KCHSC Obs (kochia (KCHSC); Cpd 2 alone 16 g a.i./ha): 65

O=C(O)COc1ccc(Cl)cc1Cl [2,4-D, (2,4-dichlorophenoxy)acetic acid]
Postemergence HORVW Obs (winter barley (HORVW); 2,4-D or MCPA alone 250 g a.i./ha): 26 | Postemergence KCHSC Obs (kochia (KCHSC); 2,4-D alone 125 g a.i./ha): 45 | Postemergence KCHSC Obs (kochia (KCHSC); 2,4-D alone 250 g a.i./ha): 45

From patent US20100285959A1, “HERBICIDAL MIXTURES” (priority 2006, published 2010)
